# Test results reported in patent US12077503B2, “Substituted cyclic amides and their use as herbicides” (FMC CORPORATION, priority 2015, dated 2024).
# How the values were obtained:
# Type in all cases: in vivo
# [1] = test system: ryegrass, Italian (Italian ryegrass, Lolium multiflorum); experiment: Test A preemergence; conditions: Lolium multiflorum, pre-emergence, 240 h, 0 to 100 scale where 0 is no effect and 100 is complete control, read-out: Ryegrass, Italian plant response rating; for pest or weed control at 31 g/ha: 31 g ai/ha, Preemergence; for pest or weed control at 125 g/ha: 125 g ai/ha, preemergence, approx. 10 d
# Summary of the method: (§1)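 Treatment is preemergence as a directed soil spray after planting, or postemergence at the one- to two-leaf stage, with test chemical in a non-phytotoxic solvent mixture plus surfactant. Plants stay in the greenhouse about 10 d before visual injury scoring on a 0 to 100 scale versus untreated controls.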
# [2] = test system: ragweed (common ragweed, Ambrosia elatior); experiment: Test A preemergence; conditions: Ambrosia artemisiifolia, pre-emergence, 240 h, 0 to 100 scale where 0 is no effect and 100 is complete control, read-out: Ragweed plant response rating; for pest or weed control at 31 g/ha: 31 g ai/ha, Preemergence; for pest or weed control at 125 g/ha: 125 g ai/ha, preemergence, approx. 10 d
# Summary of the method: as §1
# Kochia (Kochia scoparia) [3] = experiment: Test A preemergence; conditions: Bassia scoparia, pre-emergence, 240 h, 0 to 100 scale where 0 is no effect and 100 is complete control, read-out: Kochia plant response rating; for pest or weed control at 31 g/ha: 31 g ai/ha, Preemergence; for pest or weed control at 125 g/ha: 125 g ai/ha, preemergence, approx. 10 d
# Summary of the method: as §1
# [4] = test system: pigweed (Amaranthus retroflexus); experiment: Test A preemergence; conditions: Amaranthus retroflexus, pre-emergence, 240 h, 0 to 100 scale where 0 is no effect and 100 is complete control, read-out: Pigweed plant response rating; for pest or weed control at 31 g/ha: 31 g ai/ha, Preemergence; for pest or weed control at 125 g/ha: 125 g ai/ha, preemergence, approx. 10 d
# [5] = test system: giant foxtail (Setaria faberii); experiment: Test A preemergence; conditions: Setaria faberi, pre-emergence, 240 h, 0 to 100 scale where 0 is no effect and 100 is complete control, read-out: Foxtail, Giant plant response rating; for pest or weed control at 31 g/ha: 31 g ai/ha, Preemergence; for pest or weed control at 125 g/ha: 125 g ai/ha, preemergence, approx. 10 d
# Summary of the method: as §1
# [6] = test system: barnyardgrass (Echinochloa crus-galli); experiment: Test A preemergence; conditions: Echinochloa crus-galli, pre-emergence, 240 h, 0 to 100 scale where 0 is no effect and 100 is complete control, read-out: Barnyardgrass plant response rating; for pest or weed control at 31 g/ha: 31 g ai/ha, Preemergence; for pest or weed control at 125 g/ha: 125 g ai/ha, preemergence, approx. 10 d
# Summary of the method: as §1
# rice (Oryra sativa) = experiment: Test B flooded paddy test; conditions: Oryza sativa, 250 g ai/ha, Flood; 0 to 100 scale where 0 is no effect and 100 is complete control; read-out: Rice plant response rating
# Summary of the method: (§2)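 Percent control, visually estimated after 13–15 d in the greenhouse on a 0–100 basis, compares treated pots with untreated ones; compound was put into paddy water 3 cm above the soil when plants had two leaves.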
# [7] = test system: sedge, umbrella (small-flower umbrella sedge, Cyperus difformis); experiment: Test B flooded paddy test; conditions: Cyperus difformis, 250 g ai/ha, Flood; 0 to 100 scale where 0 is no effect and 100 is complete control; read-out: Sedge, Umbrella plant response rating
# Summary of the method: as §2
# [8] = test system: ducksalad (Heteranthera limosa); experiment: Test B flooded paddy test; conditions: Heteranthera limosa, 250 g ai/ha, Flood; 0 to 100 scale where 0 is no effect and 100 is complete control; read-out: Ducksalad plant response rating
# Summary of the method: as §2
# [9] = test system: barnyardgrass (Echinochloa crus-galli); experiment: Test B flooded paddy test; conditions: Echinochloa crus-galli, 250 g ai/ha, Flood; 0 to 100 scale where 0 is no effect and 100 is complete control; read-out: Barnyardgrass plant response rating
# Summary of the method: as §2
# [10] = test system: ryegrass, Italian (Italian ryegrass, Lolium multiflorum); experiment: Test A postemergence; conditions: Lolium multiflorum, post-emergence, 240 h; for pest or weed control at 125 g/ha: 125 g ai/ha, postemergence, visual injury on 0 to 100 scale (0 no effect, 100 complete control), approx. 10 d, read-out: Ryegrass, Italian plant response rating; for pest or weed control at 31 g/ha: Postemergence, 31 g ai/ha, visual injury after approx. 10 d, 0 to 100 scale, 0 no effect, 100 complete control, read-out: Plant response rating, Ryegrass, Italian
# Summary of the method: as §1
# [11] = test system: ragweed (common ragweed, Ambrosia elatior); experiment: Test A postemergence; conditions: Ambrosia artemisiifolia, post-emergence, 240 h; for pest or weed control at 125 g/ha: 125 g ai/ha, postemergence, visual injury on 0 to 100 scale (0 no effect, 100 complete control), approx. 10 d, read-out: Ragweed plant response rating; for pest or weed control at 31 g/ha: Postemergence, 31 g ai/ha, visual injury after approx. 10 d, 0 to 100 scale, 0 no effect, 100 complete control, read-out: Plant response rating, Ragweed
# Summary of the method: as §1
# Kochia (Kochia scoparia) [12] = experiment: Test A postemergence; conditions: Bassia scoparia, post-emergence, 240 h; for pest or weed control at 125 g/ha: 125 g ai/ha, postemergence, visual injury on 0 to 100 scale (0 no effect, 100 complete control), approx. 10 d, read-out: Kochia plant response rating; for pest or weed control at 31 g/ha: Postemergence, 31 g ai/ha, visual injury after approx. 10 d, 0 to 100 scale, 0 no effect, 100 complete control, read-out: Plant response rating, Kochia
# Summary of the method: as §1
# [13] = test system: Galium (catchweed bedstraw, Galium aparine); experiment: Test A postemergence; conditions: Galium, post-emergence, 240 h; for pest or weed control at 125 g/ha: 125 g ai/ha, postemergence, visual injury on 0 to 100 scale (0 no effect, 100 complete control), approx. 10 d, read-out: Galium plant response rating; for pest or weed control at 31 g/ha: Postemergence, 31 g ai/ha, visual injury after approx. 10 d, 0 to 100 scale, 0 no effect, 100 complete control, read-out: Plant response rating, Galium
# Summary of the method: as §1
# [14] = test system: wheat (Triticum aestivum); experiment: Test A postemergence; conditions: Triticum aestivum, post-emergence, 240 h; for plant injury at 125 g/ha: 125 g ai/ha, postemergence, visual injury on 0 to 100 scale (0 no effect, 100 complete control), approx. 10 d, read-out: Wheat plant response rating; for plant injury at 31 g/ha: Postemergence, 31 g ai/ha, visual injury after approx. 10 d, 0 to 100 scale, 0 no effect, 100 complete control, read-out: Plant response rating, Wheat
# Summary of the method: as §1
# [15] = test system: blackgrass (Alopecurus myosuroides); experiment: Test A postemergence; conditions: Alopecurus myosuroides, post-emergence, 240 h; for pest or weed control at 125 g/ha: 125 g ai/ha, postemergence, visual injury on 0 to 100 scale (0 no effect, 100 complete control), approx. 10 d, read-out: Blackgrass plant response rating; for pest or weed control at 31 g/ha: Postemergence, 31 g ai/ha, visual injury after approx. 10 d, 0 to 100 scale, 0 no effect, 100 complete control, read-out: Plant response rating, Blackgrass
# Summary of the method: as §1
# [16] = test system: pigweed (Amaranthus retroflexus); experiment: Test A postemergence; conditions: Amaranthus retroflexus, post-emergence, 240 h; for pest or weed control at 125 g/ha: 125 g ai/ha, postemergence, visual injury on 0 to 100 scale (0 no effect, 100 complete control), approx. 10 d, read-out: Pigweed plant response rating; for pest or weed control at 31 g/ha: Postemergence, 31 g ai/ha, visual injury after approx. 10 d, 0 to 100 scale, 0 no effect, 100 complete control, read-out: Plant response rating, Pigweed
# Summary of the method: as §1
# [17] = test system: giant foxtail (Setaria faberii); experiment: Test A postemergence; conditions: Setaria faberi, post-emergence, 240 h; for pest or weed control at 125 g/ha: 125 g ai/ha, postemergence, visual injury on 0 to 100 scale (0 no effect, 100 complete control), approx. 10 d, read-out: Foxtail, Giant plant response rating; for pest or weed control at 31 g/ha: Postemergence, 31 g ai/ha, visual injury after approx. 10 d, 0 to 100 scale, 0 no effect, 100 complete control, read-out: Plant response rating, Foxtail, Giant
# Summary of the method: as §1
# [18] = test system: barnyardgrass (Echinochloa crus-galli); experiment: Test A postemergence; conditions: Echinochloa crus-galli, post-emergence, 240 h; for pest or weed control at 125 g/ha: 125 g ai/ha, postemergence, visual injury on 0 to 100 scale (0 no effect, 100 complete control), approx. 10 d, read-out: Barnyardgrass plant response rating; for pest or weed control at 31 g/ha: Postemergence, 31 g ai/ha, visual injury after approx. 10 d, 0 to 100 scale, 0 no effect, 100 complete control, read-out: Plant response rating, Barnyardgrass
# Summary of the method: as §1
# corn (Zea mays) = experiment: Test A postemergence; conditions: Zea mays, post-emergence, 240 h; for plant injury at 125 g/ha: 125 g ai/ha, postemergence, visual injury on 0 to 100 scale (0 no effect, 100 complete control), approx. 10 d, read-out: Corn plant response rating; for Corn plant response rating (crop injury, 0 = no effect, 100 = complete kill) at 31 g/ha: Postemergence, 31 g ai/ha, visual injury after approx. 10 d, 0 to 100 scale, 100 complete control
# Summary of the method: as §1
Compound,pest or weed control at 31 g/ha [1] [%],pest or weed control at 125 g/ha [1] [%],pest or weed control at 31 g/ha [2] [%],pest or weed control at 125 g/ha [2] [%],pest or weed control at 31 g/ha (Kochia (Kochia scoparia) [3]) [%],pest or weed control at 125 g/ha (Kochia (Kochia scoparia) [3]) [%],pest or weed control at 31 g/ha [4] [%],pest or weed control at 125 g/ha [4] [%],pest or weed control at 31 g/ha [5] [%],pest or weed control at 125 g/ha [5] [%],pest or weed control at 31 g/ha [6] [%],pest or weed control at 125 g/ha [6] [%],pest or weed control at 250 g/ha (rice (Oryra sativa)) [%],pest or weed control at 250 g/ha [7] [%],pest or weed control at 250 g/ha [8] [%],pest or weed control at 250 g/ha [9] [%],pest or weed control at 125 g/ha [10] [%],pest or weed control at 31 g/ha [10] [%],pest or weed control at 125 g/ha [11] [%],pest or weed control at 31 g/ha [11] [%],other results
CN1C[C@H](c2ccc(C(F)(F)F)cn2)[C@@H](C(=O)Nc2ccc(F)c(F)c2F)C1=O [Compound 1106],0,0,0,30,0,60,0,20,60,90,50,90,40,0,100,70,0,0,0,0,"pest or weed control at 125 g/ha (Kochia (Kochia scoparia) [12]): 60%; pest or weed control at 31 g/ha (Kochia (Kochia scoparia) [12]): 0%; pest or weed control at 125 g/ha [13]: 60%; pest or weed control at 31 g/ha [13]: 40%; plant injury at 125 g/ha [14]: 0%; plant injury at 31 g/ha [14]: 0%; pest or weed control at 125 g/ha [15]: 0%; pest or weed control at 31 g/ha [15]: 0%; pest or weed control at 125 g/ha [16]: 20%; pest or weed control at 31 g/ha [16]: 10%; pest or weed control at 125 g/ha [17]: 60%; pest or weed control at 31 g/ha [17]: 0%; pest or weed control at 125 g/ha [18]: 80%; pest or weed control at 31 g/ha [18]: 30%; plant injury at 125 g/ha (corn (Zea mays)): 0%; Corn plant response rating (crop injury, 0 = no effect, 100 = complete kill) at 31 g/ha (corn (Zea mays)): 0%"
CON1CC[C@H](c2ccc(C(F)(F)F)cc2)[C@@H](C(=O)Nc2ccc(F)c(F)c2F)C1=O [Compound 1107],0,0,0,0,0,0,0,0,0,0,0,0,0,0,80,0,0,0,0,0,"pest or weed control at 125 g/ha (Kochia (Kochia scoparia) [12]): 0%; pest or weed control at 31 g/ha (Kochia (Kochia scoparia) [12]): 0%; pest or weed control at 125 g/ha [13]: 0%; pest or weed control at 31 g/ha [13]: 0%; plant injury at 125 g/ha [14]: 0%; plant injury at 31 g/ha [14]: 0%; pest or weed control at 125 g/ha [15]: 0%; pest or weed control at 31 g/ha [15]: 0%; pest or weed control at 125 g/ha [16]: 0%; pest or weed control at 31 g/ha [16]: 0%; pest or weed control at 125 g/ha [17]: 0%; pest or weed control at 31 g/ha [17]: 0%; pest or weed control at 125 g/ha [18]: 0%; pest or weed control at 31 g/ha [18]: 0%; plant injury at 125 g/ha (corn (Zea mays)): 0%; Corn plant response rating (crop injury, 0 = no effect, 100 = complete kill) at 31 g/ha (corn (Zea mays)): 0%"
